Experimental data from patent publication US20230398130A1, “METHODS AND COMPOSITIONS FOR DIFFERENTIATING STEM CELLS” (Massachusetts Institute of Technology, priority 2020, published 2023).

What was measured:
ISC-enriched organoids [1] = assay: Primary screen, 384-well 2.5-D organoid differentiation (ENR+CD, 6 days, Target Selective Inhibitor Library, vs whole-plate median): ATP (CellTiter-Glo 3D, CTG); conditions: for Dose.FC.CTG: FC vs plate median; for Dose.FC.CTG (log 2 fold change) / Dose.FC.CTG (log 2 fold change, ATP): vs plate median
ISC-enriched organoids [2] = assay: Primary screen, 384-well 2.5-D organoid differentiation (ENR+CD, 6 days): basal lysozyme secretion (LYZ.NS); type: cell-based, murine; conditions: for Dose.FC.LYZ.NS: FC vs plate median; for Dose.FC.LYZ.NS (log 2 fold change) / Dose.FC.LYZ.NS (log 2 fold change, basal lysozyme secretion): vs plate median
From the text: (§1) High-throughput screening.

ISC-enriched organoids [3] = assay: Primary screen, 384-well 2.5-D organoid differentiation (ENR+CD, 6 days): carbachol-induced lysozyme secretion (LYZ.S); type: cell-based, murine; conditions: for Dose.FC.LYZ.S / Dose.FC.LYZ.S (log 2 fold change): primary screen; for Dose.FC.LYZ.S: FC vs plate median; for Dose.FC.LYZ.S (log 2 fold change) / Dose.FC.LYZ.S (log 2 fold change, carbachol-induced lysozyme secretion): vs plate median
From the text: as §1

[4] = Dose 0.08 uM, primary screen, standard z score
[5] = Dose 0.40 uM, primary screen, standard z score
[6] = Dose 2.00 uM, primary screen, standard z score
[7] = Dose 10.00 uM, primary screen, standard z score
[8] = Dose 0.08 uM, standard z score of FC
[9] = Dose 0.40 uM, standard z score of FC
[10] = Dose 2.00 uM, standard z score of FC
[11] = Dose 10.00 uM, standard z score of FC

With `CC1=C(C(=O)Nc2cc3cn[nH]c3cc2F)C(c2ccc(C(F)(F)F)cc2)CC(=O)N1` (centres unmarked) [GSK429286A] the Dose.FC.CTG (ISC-enriched organoids [1]; Dose 0.08 uM, primary screen) was 0.527 log 2 fold change, the Z.CTG (ISC-enriched organoids [1]; [4]) was 1.260 and the Dose.FC.CTG (ISC-enriched organoids [1]; Dose 0.40 uM, primary screen) was 0.545 log 2 fold change. The Z.CTG (ISC-enriched organoids [1]; [5]) was 1.302, the Dose.FC.CTG (ISC-enriched organoids [1]; Dose 2.00 uM, primary screen) was 0.488 log 2 fold change and the Z.CTG (ISC-enriched organoids [1]; [6]) was 1.166. The Dose.FC.CTG (ISC-enriched organoids [1]; Dose 10.00 uM, primary screen) was 0.370 log 2 fold change, the Z.CTG (ISC-enriched organoids [1]; [7]) was 0.883 and the Dose.FC.LYZ.NS (ISC-enriched organoids [2]; Dose 0.08 uM, primary screen) was 0.137 log 2 fold change. The Z.LYZ.NS (ISC-enriched organoids [2]; [4]) was 1.197, the Dose.FC.LYZ.NS (ISC-enriched organoids [2]; Dose 0.40 uM, primary screen) was 0.128 log 2 fold change and the Z.LYZ.NS (ISC-enriched organoids [2]; [5]) was 1.117. The Dose.FC.LYZ.NS (ISC-enriched organoids [2]; Dose 2.00 uM, primary screen) was 0.140 log 2 fold change, the Z.LYZ.NS (ISC-enriched organoids [2]; [6]) was 1.222 and the Dose.FC.LYZ.NS (ISC-enriched organoids [2]; Dose 10.00 uM, primary screen) was 0.059 log 2 fold change. It also gave a Z.LYZ.NS (ISC-enriched organoids [2]; [7]) of 0.517, a Dose.FC.LYZ.S (ISC-enriched organoids [3]; Dose 0.08 uM) of 0.247 log 2 fold change and a Dose.FC.LYZ.S (ISC-enriched organoids [3]; Dose 0.40 uM) of 0.283 log 2 fold change. The Dose.FC.LYZ.S (ISC-enriched organoids [3]; Dose 2.00 uM) was 0.245 log 2 fold change and the Dose.FC.LYZ.S (ISC-enriched organoids [3]; Dose 10.00 uM) was 0.099 log 2 fold change.

For `O=[N+]([O-])c1ccc2c(c1)S(=O)(=O)C=C2` [Stattic], the “Z.CTG (standard z score)” value (ISC-enriched organoids [1]; Dose 0.08 uM, primary screen) was −0.191, the “Dose.FC.CTG (log 2 fold change)” value (ISC-enriched organoids [1]; Dose 0.08 uM, primary screen) was −0.080 and the “Z.CTG (standard z score)” value (ISC-enriched organoids [1]; Dose 0.40 uM, primary screen) was −0.011. The “Dose.FC.CTG (log 2 fold change)” value (ISC-enriched organoids [1]; Dose 0.40 uM, primary screen) was −0.005, the “Z.CTG (standard z score)” value (ISC-enriched organoids [1]; Dose 2.00 uM, primary screen) was 0.078 and the “Dose.FC.CTG (log 2 fold change)” value (ISC-enriched organoids [1]; Dose 2.00 uM, primary screen) was 0.033. The “Z.CTG (standard z score)” value (ISC-enriched organoids [1]; Dose 10.00 uM, primary screen) was −0.060, the “Dose.FC.CTG (log 2 fold change)” value (ISC-enriched organoids [1]; Dose 10.00 uM, primary screen) was −0.025 and the “Z.LYZ.NS (standard z score)” value (ISC-enriched organoids [2]; Dose 0.08 uM, primary screen) was 1.131. For the same compound, the “Dose.FC.LYZ.NS (log 2 fold change)” value (ISC-enriched organoids [2]; Dose 0.08 uM, primary screen) was 0.130, the “Z.LYZ.NS (standard z score)” value (ISC-enriched organoids [2]; Dose 0.40 uM, primary screen) was 0.189 and the “Dose.FC.LYZ.NS (log 2 fold change)” value (ISC-enriched organoids [2]; Dose 0.40 uM, primary screen) was 0.022. For the same compound, the “Z.LYZ.NS (standard z score)” value (ISC-enriched organoids [2]; Dose 2.00 uM, primary screen) was 1.276, the “Dose.FC.LYZ.NS (log 2 fold change)” value (ISC-enriched organoids [2]; Dose 2.00 uM, primary screen) was 0.147 and the “Z.LYZ.NS (standard z score)” value (ISC-enriched organoids [2]; Dose 10.00 uM, primary screen) was −0.186. The “Dose.FC.LYZ.NS (log 2 fold change)” value (ISC-enriched organoids [2]; Dose 10.00 uM, primary screen) was −0.021, the “Dose.FC.LYZ.S (log 2 fold change)” value (ISC-enriched organoids [3]; Dose 0.08 uM) was 0.150 and the “Dose.FC.LYZ.S (log 2 fold change)” value (ISC-enriched organoids [3]; Dose 0.40 uM) was 0.033. The “Dose.FC.LYZ.S (log 2 fold change)” value (ISC-enriched organoids [3]; Dose 2.00 uM) was 0.082 and the “Dose.FC.LYZ.S (log 2 fold change)” value (ISC-enriched organoids [3]; Dose 10.00 uM) was −0.019.

Work on `O=C(Nc1cccnc1)N1CCC(Cc2cccc(Oc3ccc(C(F)(F)F)cn3)c2)CC1` [PF-3845] yielded a Dose.FC.CTG (ISC-enriched organoids [1]; Dose 0.08 uM, primary screen) of −0.047 log 2 fold change, a Z.CTG (ISC-enriched organoids [1]; [8]) of −0.112 and a Dose.FC.CTG (ISC-enriched organoids [1]; Dose 0.40 uM, primary screen) of 0.052 log 2 fold change. It also gave a Z.CTG (ISC-enriched organoids [1]; [9]) of 0.125, a Dose.FC.CTG (ISC-enriched organoids [1]; Dose 2.00 uM, primary screen) of −0.103 log 2 fold change and a Z.CTG (ISC-enriched organoids [1]; [10]) of −0.246. It also gave a Dose.FC.CTG (ISC-enriched organoids [1]; Dose 10.00 uM, primary screen) of −0.286 log 2 fold change, a Z.CTG (ISC-enriched organoids [1]; [11]) of −0.684 and a Dose.FC.LYZ.NS (ISC-enriched organoids [2]; Dose 0.08 uM, primary screen) of 0.061 log 2 fold change. The Z.LYZ.NS (ISC-enriched organoids [2]; [8]) was 0.532, the Dose.FC.LYZ.NS (ISC-enriched organoids [2]; Dose 0.40 uM, primary screen) was −0.077 log 2 fold change and the Z.LYZ.NS (ISC-enriched organoids [2]; [9]) was −0.668. It also gave a Dose.FC.LYZ.NS (ISC-enriched organoids [2]; Dose 2.00 uM, primary screen) of −0.015 log 2 fold change, a Z.LYZ.NS (ISC-enriched organoids [2]; [10]) of −0.131 and a Dose.FC.LYZ.NS (ISC-enriched organoids [2]; Dose 10.00 uM, primary screen) of −0.131 log 2 fold change. For the same compound, the Z.LYZ.NS (ISC-enriched organoids [2]; [11]) was −1.137, the Dose.FC.LYZ.S (ISC-enriched organoids [3]; Dose 0.08 uM) was 0.027 log 2 fold change and the Dose.FC.LYZ.S (ISC-enriched organoids [3]; Dose 0.40 uM) was −0.061 log 2 fold change. The Dose.FC.LYZ.S (ISC-enriched organoids [3]; Dose 2.00 uM) was −0.032 log 2 fold change and the Dose.FC.LYZ.S (ISC-enriched organoids [3]; Dose 10.00 uM) was −0.195 log 2 fold change.

In the case of `NC(=O)Nc1sc(-c2ccc(F)cc2)cc1C(N)=O` [TPCA-1], the “Z.CTG (standard z score)” value (ISC-enriched organoids [1]; dose 0.08 uM) is reported as −0.146, the “Dose.FC.CTG (log 2 fold change, ATP)” value (ISC-enriched organoids [1]; dose 0.08 uM) is reported as −0.061 and the “Z.CTG (standard z score)” value (ISC-enriched organoids [1]; dose 0.40 uM) is reported as −0.010. The “Dose.FC.CTG (log 2 fold change, ATP)” value (ISC-enriched organoids [1]; dose 0.40 uM) was −0.004, the “Z.CTG (standard z score)” value (ISC-enriched organoids [1]; dose 2.00 uM) was −0.012 and the “Dose.FC.CTG (log 2 fold change, ATP)” value (ISC-enriched organoids [1]; dose 2.00 uM) was −0.005. For the same compound, the “Z.CTG (standard z score)” value (ISC-enriched organoids [1]; dose 10.00 uM) was −1.269, the “Dose.FC.CTG (log 2 fold change, ATP)” value (ISC-enriched organoids [1]; dose 10.00 uM) was −0.531 and the “Z.LYZ.NS (standard z score)” value (ISC-enriched organoids [2]; dose 0.08 uM) was 0.627. For the same compound, the “Dose.FC.LYZ.NS (log 2 fold change, basal lysozyme secretion)” value (ISC-enriched organoids [2]; dose 0.08 uM) was 0.072, the “Z.LYZ.NS (standard z score)” value (ISC-enriched organoids [2]; dose 0.40 uM) was −0.413 and the “Dose.FC.LYZ.NS (log 2 fold change, basal lysozyme secretion)” value (ISC-enriched organoids [2]; dose 0.40 uM) was −0.047. The “Z.LYZ.NS (standard z score)” value (ISC-enriched organoids [2]; dose 2.00 uM) was −0.514, the “Dose.FC.LYZ.NS (log 2 fold change, basal lysozyme secretion)” value (ISC-enriched organoids [2]; dose 2.00 uM) was −0.059 and the “Z.LYZ.NS (standard z score)” value (ISC-enriched organoids [2]; dose 10.00 uM) was −1.711. The “Dose.FC.LYZ.NS (log 2 fold change, basal lysozyme secretion)” value (ISC-enriched organoids [2]; dose 10.00 uM) was −0.197, the “Dose.FC.LYZ.S (log 2 fold change, carbachol-induced lysozyme secretion)” value (ISC-enriched organoids [3]; dose 0.08 uM) was 0.041 and the “Dose.FC.LYZ.S (log 2 fold change, carbachol-induced lysozyme secretion)” value (ISC-enriched organoids [3]; dose 0.40 uM) was −0.029. For the same compound, the “Dose.FC.LYZ.S (log 2 fold change, carbachol-induced lysozyme secretion)” value (ISC-enriched organoids [3]; dose 2.00 uM) was −0.054 and the “Dose.FC.LYZ.S (log 2 fold change, carbachol-induced lysozyme secretion)” value (ISC-enriched organoids [3]; dose 10.00 uM) was −0.294.
